From EPA's ToxRefDB 2

How the values were obtained:
[1] = test system: mouse; conditions: Carcinogenicity; b6c3f1; Oral; Feed; dose end: 2 year; group: systemic; systemic / in life observation / body weight / body weight
[2] = test system: rat; conditions: Carcinogenicity; fischer; Oral; Feed; dose end: 2 year; group: systemic; systemic / in life observation / body weight / body weight + systemic / pathology microscopic / kidney / hemosiderosis + systemic / …
[3] = test system: rat; conditions: Subchronic oral toxicity in rodents, sprague dawley, Feed, dose end: 90 day, group: systemic, systemic / in life observation / body weight / body weight gain + systemic / pathology gross / eye / opacity + systemic / pathology …
[4] = test system: mouse; conditions: Chronic toxicity; cd1; Oral; Feed; dose end: 1 year; group: systemic; systemic / in life observation / body weight / body weight gain + systemic / in life observation / food consumption / food efficiency
[5] = test system: rat; conditions: Prenatal developmental toxicity study, wistar, Oral, Gavage/Intubation, dose end: 16 GD
[6] = test system: rat; conditions: Multigenerational reproductive toxicity study, sprague dawley, Oral, Feed, dose end: 3 generation
[7] = test system: mouse; conditions: Carcinogenicity; cd1; Oral; Feed; dose end: 18 month; group: systemic; systemic / in life observation / body weight / body weight + systemic / in life observation / body weight / body weight gain + systemic / in…
[8] = test system: rat; conditions: Combined chronic toxicity/carcinogenicity, sprague dawley, Oral, Feed, dose end: 2 year, group: systemic
[9] = test system: dog; conditions: Chronic toxicity, beagle, Oral, Capsule, dose end: 53 week, group: systemic
[10] = test system: rat; conditions: Subchronic oral toxicity in rodents, sprague dawley, Feed, dose end: 90 day, group: systemic
[11] = test system: dog; conditions: Subchronic oral toxicity in nonrodent, beagle, Capsule, dose end: 90 day, group: systemic, systemic / in life observation / clinical signs / [other] + systemic / in life observation / clinical signs / feces, discoloration + …
[12] = test system: mouse; conditions: Carcinogenicity, other, Oral, Feed, dose end: 18 month, group: systemic
[13] = test system: rat; conditions: Combined chronic toxicity/carcinogenicity, wistar, Oral, Feed, dose end: 2 year, group: systemic
[14] = test system: rat; conditions: Multigenerational reproductive toxicity study, Wistar, Oral, Feed, dose end: 2 generation
[15] = test system: rat; conditions: Prenatal developmental toxicity study, wistar, Oral, Gavage/Intubation, dose end: 15 GD
[16] = test system: rabbit; conditions: Prenatal developmental toxicity study, new zealand white, Oral, Gavage/Intubation, dose end: 28 GD
[17] = test system: rat; conditions: Subchronic oral toxicity in rodents, wistar, Feed, dose end: 90 day, group: systemic
[18] = test system: dog; conditions: Chronic toxicity, beagle, Oral, Feed, dose end: 52 week, group: systemic
[19] = test system: rat; conditions: Combined chronic toxicity/carcinogenicity; wistar; Oral; Diet; dose end: 104 week; group: systemic; systemic / in life observation / body weight / body weight + systemic / in life observation / food consumption / food consumption + systemic…
[20] = test system: mouse; conditions: Subchronic oral toxicity in rodents, other, Feed, dose end: 90 day, group: systemic
[21] = test system: mouse; conditions: Subchronic oral toxicity in rodents, b6c3f1, Feed, dose end: 90 day
[22] = test system: rat; conditions: Subchronic oral toxicity in rodents, fischer, Feed, dose end: 90 day
[23] = test system: mouse; conditions: Multigenerational reproductive toxicity study; cd1; Oral; Feed; dose end: 2 generation; group: offspring; systemic / in life observation / body weight / offspring (pup) weight
[24] = group: developmental, developmental / developmental malformation / bone / unossified + developmental / developmental malformation / bone / bipartite ossification…
[25] = group: maternal, systemic / in life observation / body weight / body weight gain + systemic / in life observation / food consumption / food consumption + …
[26] = group: offspring, systemic / clinical chemistry / tyrosine / tyrosine
[27] = group: parental, systemic / clinical chemistry / tyrosine / tyrosine
[28] = group: parental, systemic / clinical chemistry / tyrosine / tyrosine + systemic / organ weight / liver / relative to body weight
[29] = group: reproductive, reproductive / offspring survival early / litter size / litter size
[30] = group: reproductive, reproductive / offspring survival early / litter size / litter size + reproductive / offspring survival early / birth index / live birth …
[31] = systemic / in life observation / body weight / body weight + systemic / in life observation / body weight / body weight gain
[32] = systemic / clinical chemistry / tyrosine / tyrosine + systemic / pathology microscopic / lymph node / erythrophagocytosis
[33] = systemic / clinical chemistry / tyrosine / tyrosine + systemic / pathology microscopic / lymph node / erythrophagocytosis + systemic / in …
[34] = systemic / organ weight / liver / absolute + systemic / organ weight / liver / relative to body weight
[35] = systemic / pathology microscopic / epididymis / dilatation + systemic / pathology microscopic / epididymis / infiltration cellular + …
[36] = systemic / in life observation / body weight / body weight + systemic / in life observation / body weight / body weight gain + systemic / …
[37] = group: offspring, systemic / in life observation / body weight / offspring (pup) weight gain
[38] = group: parental, systemic / in life observation / body weight / body weight gain
[39] = group: developmental, systemic / in life observation / body weight / fetal weight
[40] = group: maternal, systemic / in life observation / body weight / body weight + systemic / in life observation / body weight / body weight gain
[41] = group: developmental, developmental / developmental malformation / bone / hole(s) + developmental / developmental malformation / bone / incomplete ossification + …
[42] = group: maternal, reproductive / reproductive performance / aborted / aborted + systemic / in life observation / body weight / body weight gain + systemic / …
[43] = systemic / clinical chemistry / alkaline phosphatase (alp/alk) / alkaline phosphatase (alp/alk) + systemic / clinical chemistry / urea …
[44] = systemic / hematology / erythrocyte (rbc) count differential / erythrocyte (rbc) + systemic / hematology / hematocrit (hct) / hematocrit (…
[45] = systemic / clinical chemistry / cholesterol / cholesterol + systemic / pathology microscopic / liver / hypertrophy + systemic / clinical …
[46] = group: maternal, reproductive / reproductive performance / estrous cycle / length
[47] = group: systemic, systemic / clinical chemistry / 5' nucleotidase / 5' nucleotidase + systemic / clinical chemistry / alanine aminotransferase (alt/sgpt) / …
[48] = group: systemic, systemic / in life observation / body weight / body weight gain + systemic / organ weight / liver / relative to body weight
[49] = group: systemic, systemic / organ weight / liver / relative to body weight
[50] = group: systemic, systemic / organ weight / liver / relative to body weight + systemic / clinical chemistry / bile acids / bile acids + systemic / in life …

SMILES: c1ccc(N=Nc2ccccc2)cc1 [Azobenzene]
- LEL [1]: 30 mg/kg/day
- LOAEL [1]: 81.8 mg/kg/day
- NEL [1]: < 30 mg/kg/day
- LEL [2]: 10 mg/kg/day
- LOAEL [2]: > 20 mg/kg/day
- NEL [2]: < 10 mg/kg/day
- NOAEL [2]: ≥ 20 mg/kg/day

SMILES: CS(=O)(=O)c1ccc(C(=O)C2C(=O)CCCC2=O)c([N+](=O)[O-])c1 [Mesotrione]
- LEL [3]: 11 mg/kg/day
- LOAEL [3]: 11 mg/kg/day
- NEL [3]: 0.09 mg/kg/day
- NOAEL [3]: 0.09 mg/kg/day
- LEL [4]: 1110 mg/kg/day
- LOAEL [4]: 1110 mg/kg/day
- NEL [4]: 56.2 mg/kg/day
- NOAEL [4]: 56.2 mg/kg/day
- LEL [5, 24]: 100 mg/kg/day
- LOAEL [5, 24]: 100 mg/kg/day
- NEL [5, 24]: < 100 mg/kg/day
- NOAEL [5, 24]: < 100 mg/kg/day
- LOAEL ([5]; group: maternal, systemic / in life observation / body weight / body weight gain + systemic / in life observation / food consumption / food consumption): 300 mg/kg/day
- LEL [5, 25]: 300 mg/kg/day
- NEL [5, 25]: 100 mg/kg/day
- NOAEL [5, 25]: 100 mg/kg/day
- LEL [6, 26]: 0.3 mg/kg/day
- LOAEL [6, 26]: 0.3 mg/kg/day
- NEL [6, 26]: < 0.3 mg/kg/day
- NOAEL [6, 26]: < 0.3 mg/kg/day
- LOAEL [6, 27]: 0.3 mg/kg/day
- NOAEL [6, 27]: < 0.3 mg/kg/day
- LEL [6, 28]: 0.3 mg/kg/day
- NEL [6, 28]: < 0.3 mg/kg/day
- LEL [6, 29]: 1.1 mg/kg/day
- LOAEL [6, 29]: 1.1 mg/kg/day
- NEL [6, 30]: 0.3 mg/kg/day
- NOAEL [6, 30]: 0.3 mg/kg/day
- LEL [7]: 898 mg/kg/day
- LOAEL [7]: 898 mg/kg/day
- NEL [7]: 49.7 mg/kg/day
- NOAEL [7]: 49.7 mg/kg/day
- LEL [8, 31]: 0.06 mg/kg/day
- NEL [8, 31]: < 0.06 mg/kg/day
- LOAEL ([8]; systemic / organ weight / kidney / absolute + systemic / organ weight / kidney / nos + systemic / organ weight / liver / absolute + systemic…): 0.48 mg/kg/day
- LOAEL [9, 32]: 10 mg/kg/day
- NOAEL [9, 32]: < 10 mg/kg/day
- LEL [9, 33]: 10 mg/kg/day
- NEL [9, 33]: < 10 mg/kg/day
- LEL [10, 34]: 0.21 mg/kg/day
- NEL [10, 34]: < 0.21 mg/kg/day
- LOAEL ([10]; systemic / pathology microscopic / eye / neovascularization + systemic / pathology microscopic / eye / opacity): 0.63 mg/kg/day
- NOAEL ([10]; systemic / pathology microscopic / eye / neovascularization + systemic / pathology microscopic / eye / opacity + systemic / clinical …): 0.41 mg/kg/day
- LEL [11]: 600 mg/kg/day
- LOAEL [11]: > 1000 mg/kg/day
- NEL [11]: 100 mg/kg/day
- NOAEL [11]: ≥ 1000 mg/kg/day

SMILES: O=C(Nc1ccccc1)Nc1cnns1 [Thidiazuron]
- LOAEL ([12]; systemic / pathology microscopic / epididymis / dilatation + systemic / pathology microscopic / epididymis / infiltration cellular): 86.7 mg/kg/day
- LEL [12, 35]: 86.7 mg/kg/day
- NEL [12, 35]: 26.5 mg/kg/day
- NOAEL [12, 35]: 26.5 mg/kg/day
- LOAEL [13, 36]: 36.4 mg/kg/day
- NOAEL [13, 36]: 8 mg/kg/day
- NEL ([13]; systemic / pathology microscopic / kidney / mineralization + systemic / pathology microscopic / kidney / dilatation + systemic / pathology …): 105 mg/kg/day
- LEL [14, 37]: 108 mg/kg/day
- LOAEL [14, 37]: 108 mg/kg/day
- NEL [14, 37]: 35.4 mg/kg/day
- NOAEL [14, 37]: 35.4 mg/kg/day
- LEL [14, 38]: 108 mg/kg/day
- LOAEL [14, 38]: 108 mg/kg/day
- NEL [14, 38]: 35.4 mg/kg/day
- NOAEL [14, 38]: 35.4 mg/kg/day
- LEL [15, 39]: 300 mg/kg/day
- LOAEL [15, 39]: 300 mg/kg/day
- NEL [15, 39]: 100 mg/kg/day
- NOAEL [15, 39]: 100 mg/kg/day
- LEL [15, 40]: 300 mg/kg/day
- LOAEL [15, 40]: 300 mg/kg/day
- NEL [15, 40]: 100 mg/kg/day
- NOAEL [15, 40]: 100 mg/kg/day
- LEL [16, 41]: 125 mg/kg/day
- LOAEL [16, 41]: 125 mg/kg/day
- NEL [16, 41]: 25 mg/kg/day
- NOAEL [16, 41]: 25 mg/kg/day
- LEL [16, 42]: 125 mg/kg/day
- LOAEL [16, 42]: 125 mg/kg/day
- NEL [16, 42]: 25 mg/kg/day
- NOAEL [16, 42]: 25 mg/kg/day
- LOAEL [17, 43]: 102 mg/kg/day
- NEL [17, 43]: 11.2 mg/kg/day
- NOAEL [17, 43]: 34.5 mg/kg/day
- LEL ([17]; systemic / clinical chemistry / phosphorus / phosphorus): 34.5 mg/kg/day
- LOAEL [18, 44]: 11.8 mg/kg/day
- NOAEL [18, 44]: 3.93 mg/kg/day
- LEL ([18]; systemic / organ weight / spleen / absolute + systemic / organ weight / spleen / relative to body weight): 11.1 mg/kg/day
- NEL ([18]; systemic / organ weight / spleen / absolute + systemic / organ weight / spleen / relative to body weight + systemic / hematology / …): 4.01 mg/kg/day
- LEL [19]: 31.7 mg/kg/day
- LOAEL [19]: > 31.7 mg/kg/day
- NEL [19]: 10.6 mg/kg/day
- NOAEL [19]: ≥ 31.7 mg/kg/day
- LOAEL ([20]; systemic / clinical chemistry / cholesterol / cholesterol + systemic / pathology microscopic / liver / hypertrophy): 171 mg/kg/day
- NEL [20, 45]: 85.2 mg/kg/day
- NOAEL [20, 45]: 85.2 mg/kg/day
- LEL ([20]; systemic / clinical chemistry / cholesterol / cholesterol + systemic / pathology microscopic / liver / hypertrophy + systemic / organ weight…): 171 mg/kg/day

SMILES: Cc1ccccc1O [o-Cresol]
- LEL [21, 46]: 237 mg/kg/day
- LOAEL [21, 46]: > 3200 mg/kg/day
- NOAEL [21, 46]: ≥ 3200 mg/kg/day
- LOAEL [21, 47]: > 3200 mg/kg/day
- NOAEL [21, 47]: ≥ 3200 mg/kg/day
- LEL [21, 48]: 199 mg/kg/day
- NEL [21, 48]: < 199 mg/kg/day
- LEL [22, 46]: 129 mg/kg/day
- LOAEL [22, 46]: > 2020 mg/kg/day
- NEL [22, 46]: < 129 mg/kg/day
- NOAEL [22, 46]: ≥ 2020 mg/kg/day
- LEL [22, 49]: 510 mg/kg/day
- LOAEL [22, 49]: 1020 mg/kg/day
- NEL [22, 50]: 247 mg/kg/day
- NOAEL [22, 50]: 510 mg/kg/day
- LEL [23]: 624 mg/kg/day
- LOAEL [23]: > 624 mg/kg/day
- NOAEL [23]: ≥ 624 mg/kg/day
